According to US11535597B2, “Photoreactive ligands and uses thereof” (The Scripps Research Institute, priority 2017, dated 2022):

System: proteins in HEK293T cells
Assay: MS-based mapping of FFF probe-modified peptides (isoTOP, sites of labeling)
Format: binding, human
Details: for Labeled Peptide (residues) of NPM1 Nucleophosmin: P06748, PDB 2P1B
Summary of the method: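 Live cells treated with fragment probes (200-250 μM) in serum-free DMEM, with or without competitor ligands. Proteomes clicked to light/heavy biotin-TEV-azide, streptavidin-enriched, trypsin- then TEV-digested; probe-modified peptides identified by LC-MS/MS with any residue allowed as modified site, isoTOP ratios quantified by CIMAGE.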

In the case of `C#CCCC1(CCC(=O)N2CCCCC2Cc2ccccc2)N=N1` (stereo not drawn) [probe 13, 1-(2-Benzylpiperidin-1-yl)-3-(3-(but-3-yn-1-yl)-3H-diazirin-3-yl)propan-1-one], the “Labeled Peptide of GRWD1 Glutamate-rich WD repeat-containing protein 1” value (Accession Q9BQ67, residues of probe-labeled peptide, family Uncategorized) is reported as 263-287, the “Labeled Peptide” value (IMPDH2 Inosine-5-monophosphate dehydrogenase 2, residues of probe-modified peptide) is reported as 110-124 and the “Labeled Peptide” value (MAPRE1 (Q15691), residues of the probe-labeled peptide) is reported as 223-241. The “Labeled Peptide” value (MCM2 (P49736), residues of the probe-labeled peptide) was 797-807, the “Labeled Peptide” value (METTL7A (Q9H8H3), residues of the probe-labeled peptide) was 94-105 and the “Labeled Peptide” value (NTMT1 (Q9BV86), residues of the probe-labeled peptide) was 167-185. The “Labeled Peptide” value (NUP155 (O75694), residues of the probe-labeled peptide) was 952-968, the “Labeled Peptide” value (OPA1 (O60313), residues of the probe-labeled peptide) was 801-818 and the “Labeled Peptide (residues) of NPM1 Nucleophosmin” value (peptide DELHIVEAEAMNYEGSPIK) was 55-73. For the same molecule, the “Labeled Peptide (residues) of NPM1 Nucleophosmin” value (peptide MSVQPTVSLGGFEITPPVVLR) was 81-101, the “Labeled Peptide” value (P12268 IMPDH2 Inosine-5-monophosphate dehydrogenase 2) was 110-124 and the “Labeled Peptide” value (P24666 ACP1 Low molecular weight phosphotyrosine protein phosp) was 42-59. For the same molecule, the “Labeled Peptide” value (P31939 ATIC Bifunctional purine biosynthesis protein PURH) was 178-194, the “Labeled Peptide (residues) of PRDX2 Peroxiredoxin-2” value (P32119, peptide TDEGIAYR, PDB 1QMV) was 120-127 and the “Labeled Peptide” value (Q13867 BLMH Bleomycin hydrolase) was 203-218. The “Labeled Peptide” value (Q14240 EIF4A2 Eukaryotic initiation factor 4A-II) was 70-83, the “Labeled Peptide” value (protein ACP1 (P24666), residues of probe-labeled peptide) was 42-59 and the “Labeled Peptide” value (protein ACP1 Low molecular weight phosphotyrosine protein phosp, residues of probe-labeled peptide) was 42-59. For the same molecule, the “Labeled Peptide” value (protein ANP32A (Q10567), residues of probe-labeled peptide) was 117-132, the “Labeled Peptide” value (protein ANP32A Acidic leucine-rich nuclear phosphoprotein 32 fami, residues of probe-labeled peptide) was 117-132 and the “Labeled Peptide” value (protein ANP32B (Q92688), residues of probe-labeled peptide) was 117-132. For the same molecule, the “Labeled Peptide” value (protein AP1B1 (Q10567), residues of probe-labeled peptide) was 902-913, the “Labeled Peptide” value (protein ATIC (P31939), residues of probe-labeled peptide) was 178-194 and the “Labeled Peptide” value (protein ATIC Bifunctional purine biosynthesis protein PURH, residues of probe-labeled peptide) was 178-194. The “Labeled Peptide” value (protein ATP5F1 (P24539), residues of probe-labeled peptide) was 71-90, the “Labeled Peptide” value (protein ATP6V1B2 (P21281), residues of probe-labeled peptide) was 83-93 and the “Labeled Peptide” value (protein ATP6V1BE1 (P36543), residues of probe-labeled peptide) was 200-212. The “Labeled Peptide” value (protein BLMH (Q13867), residues of probe-labeled peptide) was 203-218, the “Labeled Peptide” value (protein BLMH Bleomycin hydrolase, residues of probe-labeled peptide) was 203-218 and the “Labeled Peptide” value (protein CALM3 Calmodulin (P62158), residues of probe-labeled peptide) was 128-149. The “Labeled Peptide” value (protein CCT7 T-complex protein 1 subunit eta (Q99832), residues of probe-labeled peptide) was 85-106, the “Labeled Peptide” value (protein COPB1 Coatomer subunit beta (P53618), residues of probe-labeled peptide) was 262-279 and the “Labeled Peptide” value (protein CSTF3 Cleavage stimulation factor subunit 3 (Q12996), residues of probe-labeled peptide) was 440-464. For the same molecule, the “Labeled Peptide” value (protein DIABLO Diablo homolog, mitochondrial (Q9NR28), residues of probe-labeled peptide) was 124-140, the “Labeled Peptide” value (protein DIABLO Diablo homolog, mitochondrial, residues of probe-labeled peptide) was 124-140 and the “Labeled Peptide” value (protein EEF1A1 Elongation factor 1-alpha 1 (P68104), residues of probe-labeled peptide) was 135-146. For the same molecule, the “Labeled Peptide” value (protein EEF1G Elongation factor 1-gamma (P26641), residues of probe-labeled peptide) was 379-400, the “Labeled Peptide” value (protein EIF3L Eukaryotic translation initiation factor 3 submit (Q9Y262), residues of probe-labeled peptide) was 404-419 and the “Labeled Peptide” value (protein EIF4A2 Eukaryotic initiation factor 4A-II (Q14240), residues of probe-labeled peptide) was 70-83. For the same molecule, the “Labeled Peptide” value (protein EIF4A2 Eukaryotic initiation factor 4A-II, residues of probe-labeled peptide) was 70-83, the “Labeled Peptide” value (protein ERH Enhancer of rudimentary homolog (P84090), residues of probe-labeled peptide) was 18-34 and the “Labeled Peptide” value (protein ERH Enhancer of rudimentary homolog, residues of probe-labeled peptide) was 18-34. For the same molecule, the “Labeled Peptide” value (protein FKBP4 Peptidyl-prolyl cis-trans isomerase (Q02790), residues of probe-labeled peptide) was 190-206, the “Labeled Peptide” value (protein FKBP4 Peptidyl-prolyl cis-trans isomerase FKBP4, residues of probe-labeled peptide) was 190-206 and the “Labeled Peptide” value (protein FKBP10 Peptidyl-prolyl cis-trans isomerase FKBP10 (Q96AY3), residues of probe-labeled peptide) was 198-212. The “Labeled Peptide” value (protein KPNA2 Importin subunit alpha-2, residues of the probe-labeled peptide) was 301-315, the “Labeled Peptide” value (protein NTMT1 N-terminal Xaa-Pro-Lys N-methyltransferase 1, residues of the probe-labeled peptide) was 167-185 and the “Labeled Peptide” value (protein O43615 TIMM44 Mitochondrial import inner membrane translocase su) was 428-439. For the same molecule, the “Labeled Peptide” value (protein P62241 RPS8 40S ribosomal protein S8) was 158-170, the “Labeled Peptide” value (protein P62314 SNRNP40 U5 small nuclear ribonucleoprotein Sm D1) was 67-86 and the “Labeled Peptide” value (protein P62888 RPL30 60S ribosomal protein L30) was 58-68. The “Labeled Peptide” value (protein PDCD4 Programmed cell death protein 4 (Q53EL6)) was 246-256, the “Labeled Peptide” value (protein PDCD4 Programmed cell death protein 4, residues of the probe-labeled peptide) was 246-256 and the “Labeled Peptide” value (protein PDS5A Sister chromatid cohesion protein PDS5 homolog A (Q29RF7)) was 638-657. For the same molecule, the “Labeled Peptide” value (protein PFN1 Profilin-1 (P07737)) was 39-54, the “Labeled Peptide” value (protein PHGDH D-3-phosphoglycerate dehydrogenase (O43175)) was 295-308 and the “Labeled Peptide” value (protein PMPCB Mitochondrial-processing peptidase subunit beta (O75439)) was 406-424. For the same molecule, the “Labeled Peptide” value (protein PRDX2 Peroxiredoxin-2 (P32119)) was 120-127, the “Labeled Peptide” value (protein PRDX2 Peroxiredoxin-2, residues of the probe-labeled peptide) was 120-127 and the “Labeled Peptide” value (protein PRMT1 Protein argine N-methyltransferase 1 (Q99873)) was 380-391. For the same molecule, the “Labeled Peptide” value (protein PTPLAD1 3-hydroxyacyl-CoA dehydratase 3 (Q9P035)) was 133-146, the “Labeled Peptide” value (protein Q8N3U4 STAG2 Cohesin subunit SA-2) was 273-290 and the “Labeled Peptide” value (protein Q96DI7 SNRNP40 U5 small nuclear ribonucleoprotein 40 kDa protein) was 233-260. For the same molecule, the “Labeled Peptide” value (protein Q01082 SPTAN1 Spectrin beta chain, non-erythrocytic 1) was 1706-1717, the “Labeled Peptide” value (protein Q12931 TRAP1 Heat shock protein 75 kDa, mitochondrial) was 603-619 and the “Labeled Peptide” value (protein Q92922 SMARCC1 SWI/SNF complex subunit SMARCC1) was 894-905. The “Labeled Peptide” value (protein RBC2 Replication (P35250)) was 211-230, the “Labeled Peptide” value (protein RCN1 Reticulocalbin-1 (Q15293)) was 91-105 and the “Labeled Peptide” value (protein RPL30 60S ribosomal protein L30, residues of the probe-labeled peptide) was 58-68. For the same molecule, the “Labeled Peptide” value (protein STAG2 Cohesin subunit SA-2, residues of the probe-modified peptide) was 273-290, the “Labeled Peptide” value (protein TIMM44 Mitochondrial import inner membrane translocase su, residues of the probe-modified peptide) was 428-439 and the “Labeled Peptide” value (residues of probe-labeled peptide on TUBA4A Tubulin alpha-4A chain, Accession # P68366) was 340-352.
